Assay results published in US8466176B2 (priority 2008, dated 2013).

Assays:
[1] = Measurement of logP values according EEC directive 79/831 Annex V.A8 by HPLC on reversed phase columns; format: physicochemical
[2] = logP by HPLC on reversed phase columns, method [a], pH 2.3 with 0.1% phosphoric acid and acetonitrile; format: physicochemical; details: method [a]: pH 2.3, 0.1% phosphoric acid and acetonitrile as eluent, EEC directive 79/831 Annex V.A8, reversed phase HPLC; for chromatographic logP: reversed phase HPLC columns, read-out: log p
[3] = logP(HCOOH) reported with HPLC/MS
Phytophthora infestans = assay: whole plant or invertebrate; format: in vivo; details: in Solanum lycopersicum, 168 h, read-out: efficacy
[4] = no method mark printed in the cell
[5] = HCOOH (formic acid), logP(HCOOH), HPLC/MS
[6] = reversed phase HPLC column, pH 2.7, log p, method [b]: LC-MS at pH 2.7, 0.1% formic acid in water and acetonitrile, linear gradient 10% to 95% acetonitrile
[7] = method [a]: pH 2.3 with 0.1% phosphoric acid and acetonitrile as eluent

| Structure (SMILES) | log p [2] | also measured |
| --- | --- | --- |
| Cn1nnnc1C(=NOCc1cccc(Br)n1)c1ccccc1 (single isomer, unassigned) [Example 306] |  | log p [1, 4]: 3.19 |
| Cn1nnnc1C(=NOCc1cccc(Br)n1)c1ccccc1 (single isomer, unassigned) [Example 307] |  | log p [1, 4]: 3.00 |
| C#Cc1cccc(CON=C(c2ccccc2)c2nnnn2C)n1 [Example 19] | 2.69^[a]; | log p ([3]; method [b]: LC-MS at pH 2.7, 0.1% formic acid in water and acetonitrile, linear gradient 10% to 95% acetonitrile): 2.7^[b] |
| CCCCCCOc1cccc(CON=C(c2ccccc2)c2nnnn2C)n1 [Example 20, N-{[6-(hexyloxy)pyridin-2-yl]methoxy}-1-(1-methyl-1H-tetrazol-5-yl)-1-phenylmethanimine] |  | chromatographic logP [2]: 5.39; chromatographic logP ([3]; logP(HCOOH), HPLC/MS): 5.39 |
| CCCCC#Cc1cccc(CON=C(c2ccccc2)c2nnnn2C)n1 [Example 23, N-{[6-(hex-1-yn-1-yl)pyridin-2-yl]methoxy}-1-(1-methyl-1H-tetrazol-5-yl)-1-phenylmethanimine] |  | pest or weed control at 500 ppm (Phytophthora infestans): ≥ 70% |
| Cn1nnnc1C(=NOCc1csc(Br)n1)c1ccccc1 [Example 32, N-[(2-bromo-1,3-thiazol-4-yl)methoxy]-1-(1-methyl-1H-tetrazol-5-yl)-1-phenyl-methanimine] |  | pest or weed control at 500 ppm (Phytophthora infestans): ≥ 70%; chromatographic logP ([3]; logP(HCOOH), HPLC/MS): 3.11 |
| Cn1nnnc1C(=NOCc1cccc(-c2ccc(-c3ccccc3)cc2)n1)c1ccccc1 [Example 35] | 5.05^[a] |  |
| Cn1nnnc1C(=NOCc1cccc(-c2ccc(OCc3ccccc3)cc2)n1)c1ccccc1 [Example 36] | 4.89^[a] |  |
| CN(CCc1ccccc1)c1nc(CON=C(c2ccccc2)c2nnnn2C)cs1 [Example 37] | 3.96^[a] |  |
| CCc1ccc(-c2cccc(CON=C(c3ccccc3)c3nnnn3C)n2)cc1 [Example 38] | 4.7^[a] |  |
| CCCCOc1ccc(-c2cccc(CON=C(c3ccccc3)c3nnnn3C)n2)cc1 [Example 39] | 5.2^[a] |  |
| Cn1nnnc1C(=NOCc1cccc(-c2ccc(OC(F)(F)F)cc2)n1)c1ccccc1 [Example 40] | 4.73^[a] |  |
| Cn1nnnc1C(=NOCc1cccc(-c2cc(Cl)cc(Cl)c2)n1)c1ccccc1 [Example 41] | 5.23^[a] |  |
| CCCCOc1cccc(-c2cccc(CON=C(c3ccccc3)c3nnnn3C)n2)c1 [Example 44] | 5.2^[a] |  |
| Cn1nnnc1C(=NOCc1cccc(-c2cccc(C(F)(F)F)c2)n1)c1ccccc1 [Example 45] | 4.56^[a] |  |
| COCCCN(C)c1nc(CON=C(c2ccccc2)c2nnnn2C)cs1 [Example 46] | 2.59^[a] |  |
| Cn1nnnc1C(=NOCc1cccc(-c2cccc(Cl)c2)n1)c1ccccc1 [Example 47] | 4.49^[a] |  |
| CN(Cc1ccccc1)c1nc(CON=C(c2ccccc2)c2nnnn2C)cs1 [Example 48] | 3.89^[a] |  |
| Cn1nnnc1C(=NOCc1csc(N2CCCCC2)n1)c1ccccc1 [Example 49] | 3.39^[a] |  |

| Structure (SMILES) | log p [2] | also measured |
| --- | --- | --- |
| CCCCCCN(C)c1nc(CON=C(c2ccccc2)c2nnnn2C)cs1 [Example 50] | 4.56^[a] |  |
| CCCCCN(C)c1nc(CON=C(c2ccccc2)c2nnnn2C)cs1 [Example 51] | 4.01^[a] |  |
| Cn1nnnc1C(=NOCc1csc(C#Cc2ccccc2)n1)c1ccccc1 [Example 59] | 4.16^[a] |  |
| CC(C)CC#Cc1nc(CON=C(c2ccccc2)c2nnnn2C)cs1 [Example 61] | 4.34^[a] |  |
| Cn1nnnc1C(=NOCc1csc(C#CCCCc2ccccc2)n1)c1ccccc1 [Example 62] | 4.78^[a] |  |
| CCCC(C)C#Cc1nc(CON=C(c2ccccc2)c2nnnn2C)cs1 (stereo not drawn) [Example 64] | 4.78^[a] |  |
| CC(C)CCC#Cc1nc(CON=C(c2ccccc2)c2nnnn2C)cs1 [Example 65] | 4.75^[a] |  |
| Cn1nnnc1C(=NOCc1csc(C#CCC2CCCC2)n1)c1ccccc1 [Example 66] | 4.92^[a] |  |
| Cn1nnnc1C(=NOCc1csc(C#CCC2CCCCC2)n1)c1ccccc1 [Example 67] | 5.32^[a] |  |
| Cn1nnnc1C(=NOCc1csc(C#CC2CCCCC2)n1)c1ccccc1 [Example 68] | 4.89^[a] |  |
| Cn1nnnc1C(=NOCc1csc(C#CC2CCCC2)n1)c1ccccc1 [Example 69] | 4.49^[a] |  |
| Cn1nnnc1C(=NOCc1csc(C#CC2CC2)n1)c1ccccc1 [Example 70, N-{[2-(cyclopropylethynyl)-1,3-thiazol-4-yl]methoxy}-1-(1-methyl-1H-tetrazol-5-yl)-1-phenylmethanimine] |  | chromatographic logP [2]: 3.58; pest or weed control at 500 ppm (Phytophthora infestans): ≥ 70%; chromatographic logP [3, 5]: 3.58 |
| COCC#Cc1nc(CON=C(c2ccccc2)c2nnnn2C)cs1 [Example 71] | 2.92^[a] |  |
| CCCCC#Cc1nc(CON=C(c2ccccc2)c2nnnn2C)cs1 [Example 72] | 4.36^[a] |  |
| Cn1nnnc1C(=NOCc1cccc(C(F)(F)C(F)(F)C(F)(F)C(F)(F)C(F)(F)C(F)(F)C(F)(F)F)n1)c1ccccc1 [Example 73] | 5.86^[a] |  |
| CCCCCSc1cccc(CON=C(c2ccccc2)c2nnnn2C)n1 [Example 74, 1-(1-methyl-1H-tetrazol-5-yl)-N-{[6-(pentylsulfanyl)pyridin-2-yl]methoxy}-1-phenylmethanimine] |  | chromatographic logP [2]: 5.14; chromatographic logP ([3]; HPLC/MS, logP(HCOOH)): 5.97 |
| Cn1nnnc1C(=NOCc1cccc(NCCC2CCCCC2)n1)c1ccccc1 [Example 80, N-(2-cyclohexylethyl)-6-[({[(1-methyl-1H-tetrazol-5-yl)(phenyl)methylene]amino}oxy)methyl]pyridin-2-amine] |  | pest or weed control at 500 ppm (Phytophthora infestans): ≥ 70% |
| CCCCC/C=C/c1nc(CON=C(c2ccccc2)c2nnnn2C)cs1 [Example 81] | 5.05^[a] |  |
| CCCCCC/C=C/c1nc(CON=C(c2ccccc2)c2nnnn2C)cs1 [Example 82] | 5.53^[a] |  |

| Structure (SMILES) | log p [2] | also measured |
| --- | --- | --- |
| COc1cccc(/C=C/c2cccc(CON=C(c3ccccc3)c3nnnn3C)n2)c1 [Example 87] | 4.14^[a] |  |
| Cn1nnnc1C(=NOCc1csc(/C=C/Cc2ccccc2)n1)c1ccccc1 [Example 88] | 4.29^[a] |  |
| Cn1nnnc1C(=NOCc1csc(/C=C/C2CCCCC2)n1)c1ccccc1 [Example 89] | 5.14^[a] |  |
| CCCCC/C=C/c1cccc(CON=C(c2ccccc2)c2nnnn2C)n1 [Example 90] | 5^[a] |  |
| Cn1nnnc1C(=NOCc1cccc(/C=C/c2cccc(F)c2)n1)c1ccccc1 [Example 91] | 4.29^[a] |  |
| CCCCCC/C=C/c1cccc(CON=C(c2ccccc2)c2nnnn2C)n1 [Example 92] | 5.5^[a] |  |
| Cn1nnnc1C(=NOCc1cccc(/C=C/C2CCCCC2)n1)c1ccccc1 [Example 93, N-({6-[(E)-2-cyclohexylvinyl]pyridin-2-yl}methoxy)-1-(1-methyl-1H-tetrazol-5-yl)-1-phenylmethanimine] |  | chromatographic logP [2]: 5.05; pest or weed control at 500 ppm (Phytophthora infestans): ≥ 70%; chromatographic logP ([3]; HPLC, logP(HCOOH), HPLC/MS): 5.05 |
| Cn1nnnc1C(=NOCc1cccc(/C=C/Cc2ccccc2)n1)c1ccccc1 [Example 94] | 4.31^[a] |  |
| Cn1nnnc1C(=NOCc1cccc(/C=C/c2cc(F)cc(F)c2)n1)c1ccccc1 [Example 95] | 4.49^[a] |  |
| CCCCC#Cc1ccc(F)c(CON=C(c2ccccc2)c2nnnn2C)n1 [Example 99, N-{[3-fluoro-6-(hex-1-yn-1-yl)pyridin-2-yl]methoxy}-1-(1-methyl-1H-tetrazol-5-yl)-1-phenylmethanimine] |  | pest or weed control at 500 ppm (Phytophthora infestans): ≥ 70%; chromatographic logP ([3]; logP(HCOOH), HPLC/MS): 4.41; chromatographic logP [3, 6]: 4.41 |
| Cn1nnnc1C(=NOCc1nc(Cl)sc1Cl)c1ccccc1 [Example 113, N-[(2,5-dichloro-1,3-thiazol-4-yl)methoxy]-1-(1-methyl-1H-tetrazol-5-yl)-1-phenylmethanimine] |  | pest or weed control at 500 ppm (Phytophthora infestans): ≥ 70%; chromatographic logP [3, 5]: 3.67; chromatographic logP [3, 6]: 3.67 |
| Cn1nnnc1C(=NOCc1nc(C#CC2CC2)sc1Cl)c1ccccc1 [Example 114, N-{[5-chloro-2-(cyclopropylethynyl)-1,3-thiazol-4-yl]methoxy}-1-(1-methyl-1H-tetrazol-5-yl)-1-phenylmethanimine] |  | pest or weed control at 500 ppm (Phytophthora infestans): ≥ 70%; chromatographic logP [3, 5]: 4.59; chromatographic logP [3, 6]: 4.59 |
| COc1ccc(CON=C(c2ccccc2)c2nnnn2C)nc1C#CC1CC1 [Example 126, N-{[6-(cyclopropylethynyl)-5-methoxypyridin-2-yl]methoxy}-1-(1-methyl-1H-tetrazol-5-yl)-1-phenylmethanimine] |  | pest or weed control at 500 ppm (Phytophthora infestans): ≥ 70%; chromatographic logP [3, 5]: 3.23; chromatographic logP [3, 6]: 3.23 |
| Cn1nnnc1C(=NOCc1cccc(C2OCCO2)n1)c1ccccc1 [Example 160, N-{[6-(1,3-dioxolan-2-yl)pyridin-2-yl]methoxy}-1-(1-methyl-1H-tetrazol-5-yl)-1-phenylmethanimine] |  | pest or weed control at 500 ppm (Phytophthora infestans): ≥ 70%; chromatographic logP ([3]; HPLC, logP(HCOOH), HPLC/MS): 2.47; chromatographic logP ([3]; reversed phase HPLC column, pH 7.8, log p, method [c]: LC-MS, pH 7.8 with 0.001 molar ammonium hydrogen carbonate solution in water, linear gradient 10% to 95% acetonitrile): 2.47 |
| CCCCC1CC(c2cccc(CON=C(c3ccccc3)c3nnnn3C)n2)=NO1 (stereo not drawn) [Example 276] |  | log p [1, 7]: 4.26^[a] |
| Cn1nnnc1C(=NOCc1csc(/C=C/C2CC2)n1)c1ccccc1 [Example 277] |  | log p [1, 7]: 3.58^[a] |
| Cn1nnnc1C(=NOCc1csc(/C=C/CC2CCCC2)n1)c1ccccc1 [Example 279] |  | log p [1, 7]: 5.14^[a] |
| Cn1nnnc1C(=NOCc1cccc(NCC2CCCC2)n1)c1ccccc1 [Example 288] |  | log p [1, 7]: 2.3^[a] |
| Cn1nnnc1C(=NOCc1cccc(NCC2CCCCC2)n1)c1ccccc1 [Example 289] |  | log p [1, 7]: 2.43^[a] |
